Laboratory results as given in patent publication US10961215B2, “N-aryl and N-heteroaryl piperidine derivatives as liver X receptor beta agonists, compositions, and their use” (Merck Sharp & Dohme Corp., priority 2016, dated 2021).

Tests used:
[1] = target: T1, GST tagged LXRbeta LBD (ligand binding domain) (Homo sapiens, UniProt P55055); assay: LanthaScreen TR-FRET Liver X Receptor Coactivator Assay, LXR beta-LBD (co-activator recruitment; IP and % Emax relative to T0901317); assay type: biochemical; settings: for EC50: Inflection Point of co-activator recruitment, LXR beta-LBD, TR-FRET; for Emax: read-out: LXR beta actiivty at max dose (%)
T1 construct: purchased Invitrogen pv4658.pps
T1 sequence (P55055 222-460 limits assumed): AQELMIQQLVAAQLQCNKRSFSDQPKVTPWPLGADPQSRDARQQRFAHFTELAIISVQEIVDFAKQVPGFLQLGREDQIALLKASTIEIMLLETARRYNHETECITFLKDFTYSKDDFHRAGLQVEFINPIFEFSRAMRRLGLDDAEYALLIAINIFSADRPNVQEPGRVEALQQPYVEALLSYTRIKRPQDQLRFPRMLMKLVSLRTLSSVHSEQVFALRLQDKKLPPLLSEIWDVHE
Procedure, shortened: (§1)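 Potency as inflection point and efficacy as Emax come from compound-driven coactivator peptide recruitment, scaled to T0901317, using a terbium/fluorescein TR-FRET format after room-temperature incubation.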

[2] = target: T2, GST tagged LXRalpha LBD (ligand binding domain) (Homo sapiens, UniProt Q13133); assay: LanthaScreen TR-FRET Liver X Receptor Coactivator Assay, LXR alpha-LBD (co-activator recruitment; IP and % Emax relative to T0901317); assay type: biochemical; settings: for LXR alpha actiivty at max dose (%) / Emax: efficacy at max dose in relation to reference T0901317, LXR alpha-LBD; for Emax: read-out: LXR alpha actiivty at max dose (%)
T2 construct: purchased Invitrogen pv4655
T2 sequence (Q13133 209-447 limits assumed): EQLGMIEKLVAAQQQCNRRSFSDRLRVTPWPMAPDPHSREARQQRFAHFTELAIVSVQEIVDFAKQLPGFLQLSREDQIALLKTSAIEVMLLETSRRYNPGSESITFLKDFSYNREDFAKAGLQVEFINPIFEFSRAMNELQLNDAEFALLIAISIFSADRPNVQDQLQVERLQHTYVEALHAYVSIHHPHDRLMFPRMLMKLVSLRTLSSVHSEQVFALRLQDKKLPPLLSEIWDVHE
Procedure, shortened: as §1

[3] = efficacy at max dose in relation to reference T0901317, LXR beta-LBD
[4] = Inflection Point of co-activator recruitment, LXR alpha-LBD, TR-FRET

Compound | EC50 [1] [nM] | Emax [1, 3] [%] | LXR alpha IP (nM) [2, 4] | LXR alpha actiivty at max dose (%) [2] [%] | LXR beta actiivty at max dose (%) [1, 3] [%] | Emax [2] [%] | EC50 [2, 4] [nM]
COc1cccc([C@@](O)(C(=O)N(C)CC2CC(C3CCN(c4ccc(C(=O)N(C)C)c(Cl)n4)CC3)C2)C(F)(F)F)c1 (stereo partly drawn) [Example 16-1, (R)-2-chloro-N,N-dimethyl-6-(4-(3-((3,3,3-trifluoro-2-hydroxy-2-(3-methoxyphenyl)-N-methylpropanamido)methyl)cyclobutyl)piperidin-1-yl)nicotinamide] | 47 | 64 | – | – | – | 36 | 1400
CN(C)C(=O)c1ccc(N2CCC([C@H]3C[C@H](N(C)C(=O)[C@](O)(c4cccc(C5CC5)c4)C(F)(F)F)C3)CC2)nc1Cl [Example 17-1, 2-chloro-6-(4-((1R,3r)-3-((R)-2-(3-cyclopropylphenyl)-3,3,3-trifluoro-2-hydroxy-N-methylpropanamido)cyclobutyl)piperidin-1-yl)-N,N-dimethylnicotinamide] | 18 | 76 | No IP | – | – | 14 | –
CN(C)C(=O)c1ccc(N2CCC([C@H]3C[C@@H](N(C)C(=O)[C@](O)(c4cccc(C5CC5)c4)C(F)(F)F)C3)CC2)nc1Cl [Example 17-2, cis-2-chloro-6-(4-(-3-((R)-2-(3-cyclopropylphenyl)-3,3,3-trifluoro-2-hydroxy-N-methylpropanamido)cyclobutyl)piperidin-1-yl)-N,N-dimethylnicotinamide] | 33 | 43 | No IP | – | – | 10 | –
COc1cccc([C@@](O)(C(=O)N(C)[C@H]2C[C@H](C3CCN(c4ccc(C(=O)N(C)C)c(Cl)n4)CC3)C2)C(F)(F)F)c1 [Example 17-3, Trans-2-chloro-N,N-dimethyl-6-(4-(-3-((R)-3,3,3-trifluoro-2-hydroxy-2-(3-methoxyphenyl)-N-methylpropanamido)cyclobutyl)piperidin-1-yl)nicotinamide] | 27 | 65 | No IP | – | – | 12 | –

Further lines, results first:

EC50 [1] [nM] | Emax [1, 3] [%] | LXR alpha IP (nM) [2, 4] | LXR alpha actiivty at max dose (%) [2] [%] | LXR beta actiivty at max dose (%) [1, 3] [%] | Emax [2] [%] | EC50 [2, 4] [nM] | Compound
505 | 79 | No IP | 0 | – | – | – | CN(C)C(=O)c1ccc(N2CCC([C@@H]3C[C@H]3CNC(=O)[C@@](O)(c3ccccc3)C(F)(F)F)CC2)cc1Cl [Example 15-17, 2-chloro-N,N-dimethyl-4-(4-((1S,2R)-2-(((S)-3,3,3-trifluoro-2-hydroxy-2-phenylpropanamido)methyl)cyclopropyl)piperidin-1-yl)benzamide]
763 | – | No IP | 8 | 66 | – | – | CN(C)C(=O)c1ccc(N2CCC([C@@H]3C[C@H]3CNC(=O)[C@@](O)(c3ccccc3)C(F)(F)F)CC2)cc1Cl [Example 15-18, 2-chloro-N,N-dimethyl-4-(4-((1S,2R)-2-(((S)-3,3,3-trifluoro-2-hydroxy-2-phenylpropanamido)methyl)cyclopropyl)piperidin-1-yl)benzamide]
127 | 72 | No IP | – | – | 0 | – | CN(C)C(=O)c1ccc(N2CCC([C@@H]3C[C@H]3CN(C)C(=O)[C@](O)(c3ccccc3)C(F)(F)F)CC2)cc1Cl [Example 15-19, 2-chloro-N,N-dimethyl-4-(4-((1S,2R)-2-(((R)-3,3,3-trifluoro-2-hydroxy-N-methyl-2-phenylpropanamido)methyl)cyclopropyl)piperidin-1-yl)benzamide]
403 | 65 | No IP | – | – | 12 | – | CN(C)C(=O)c1ccc(N2CCC([C@@H]3C[C@H]3CN(C)C(=O)[C@@](O)(c3ccccc3)C(F)(F)F)CC2)cc1Cl [Example 15-20, 2-chloro-N,N-dimethyl-4-(4-((1S,2R)-2-(((S)-3,3,3-trifluoro-2-hydroxy-N-methyl-2-phenylpropanamido)methyl)cyclopropyl)piperidin-1-yl)benzamide]
